Test results published in US20240408082A1, “METHODS FOR TREATING CANCERS AND TUMORS” (BEYONDSPRING PHARMACEUTICALS, INC., priority 2021, published 2024).
Several values for one entry are separate records, joined by “and”; a condition that tells them apart may be missing. Equal entries are not always repeated.

Key:
Format in all cases: cell-based
BXF 1258 = assay: 3D clonogenic assay, Example 1, BXF 1258; conditions: model BXF 1258
Procedure: (§1) In the present study, plinabulin was characterized for its ability to inhibit anchorage independent growth and ex vivo colony formation of tumor cells in semi-solid medium. The compound was investigated in 87 out of 93 originally planned tumor xenografts representing all major cancer types using a 3D clonogenic assay in a 96-well format with colony count based on image analysis as read-out. By using this assay, the investigational compound was assessed for the ability to inhibit anchorage independent growth and ex vivo colony formation of tumor cells in semi-solid medium.
(§2) A master stock solution of plinabulin was prepared by dissolving the compound in DMSO at a concentration of 9.9 mM. Working stock solutions were prepared by diluting the master stock solution with DMSO to a concentration of 0.99 mM (330-fold the highest test concentration). Small aliquots of the master and working stock were stored at −20° C. […]
(§3) Plinabulin was investigated in 87 PDX models representing a number of cancer types. […] The percentage of viable cells was determined in a Neubauer-hemocytometer using trypan blue exclusion. […]
(§4) The clonogenic assay was carried out in a 96 well plate format using ultra low attachment plates. […] Cultures were incubated at 37° C. and 7.5% CO2 in a humidified atmosphere 13 days in total and monitored closely for colony growth using an inverted microscope. […]

bladder cancer models = assay: 3D clonogenic assay, Example 2, bladder cancer models; conditions: n=6 models
Procedure: (§5) The present study investigated plinabulin for anticancer activity ex vivo in 68 out of 71 originally planned patient-derived xenograft (PDX) models representing major cancer types. Experiments were performed using a 3D clonogenic assay in a 96-well format with colony count based on image analysis as a read-out. By using this assay, the investigational compound was assessed for the ability to inhibit anchorage independent growth and ex vivo colony formation of tumor cells in semi-solid medium.
as §2
(§6) Plinabulin was investigated in 68 PDX models representing a number of cancer types. […] The percentage of viable cells was determined in a Neubauer-hemocytometer using trypan blue exclusion. […]
as §4

[1] = tested on: small cell lung cancer model LXFS 1129; assay: 3D clonogenic assay, Example 2, LXFS 1129
Procedure: as §5, §2, §6, §4

[2] = tested on: gastric cancer models (Caucasian); assay: 3D clonogenic assay, Example 2, gastric cancer models (Caucasian); conditions: n=3 models
Procedure: as §5, §2, §6, §4

[3] = tested on: small cell lung cancer model LXFS 650; assay: 3D clonogenic assay, Example 2, LXFS 650
Procedure: as §5, §2, §6, §4

osteosarcoma = assay: 3D clonogenic assay, Example 2, osteosarcoma; conditions: n=3 models
Procedure: as §5, §2, §6, §4

[4] = tested on: osteosarcoma model SXFO 1186; assay: 3D clonogenic assay, Example 2, SXFO 1186
Procedure: as §5, §2, §6, §4

small cell lung cancer [5] = assay: 3D clonogenic assay, Example 2, small cell lung cancer; conditions: n=7 models
Procedure: as §5, §2, §6, §4

melanoma models [6] = assay: 3D clonogenic assay, Example 2, melanoma models; conditions: n=9 models
Procedure: as §5, §2, §6, §4

melanoma models [7] = assay: 3D clonogenic assay, Example 1, melanoma models; conditions: n=19 models
Procedure: as §1, §2, §3, §4

[8] = tested on: 68 PDX models of various histotypes; assay: 3D clonogenic assay, Example 2, all PDX models
Procedure: as §5
(§7) A master stock solution of plinabulin was prepared by dissolving the compound in DMSO at a concentration of 9.9 mM. Working stock solutions were prepared by diluting the master stock solution with DMSO to a concentration of 0.99 mM (330-fold the highest test concentration). Small aliquots of the master and working stock were stored at −20° C. On each day of an experiment, an aliquot of the working stock was used and stored at room temperature prior to and during treatment. All liquid handling steps were performed using a Tecan Freedom EVO 200 robotic platform. First, serial dilutions of the working stock solution were done in DMSO. The DMSO dilutions were then diluted 1:22 into the cell culture medium (IMDM, supplemented with 20% (v/v) fetal calf serum, and 50 μg/ml gentamicin) in an intermediate dilution plate. Finally, 10 μl taken from the intermediate dilution plate were transferred to 140 μl/well of the final assay plate. Thus, the DMSO working stock was diluted at 1:330, and the DMSO concentration in the assay was 0.3% v/v in all wells.
(§8) Plinabulin was investigated in 68 PDX models representing a number of cancer types. Tumors were passaged as subcutaneous xenografts in NMRI nu/nu mice. At a tumor volume of 400-1000 mm^3 tumor-bearing mice were euthanized and tumors were collected under sterile conditions without delay according to relevant SOPs and the relevant animal welfare guidelines published by the FELASA and the GV-SOLAS. Tumors were mechanically disaggregated and subsequently incubated with an enzyme cocktail consisting of collagenase type IV (41 U/ml), DNase I (125 U/ml), hyaluronidase type III (100 U/ml), and dispase II (1 U/ml) in RPMI 1640 medium (Life Technologies) at 37° C. for 60-120 minutes. Cells were passed through sieves of 100 μm and 40 μm mesh size (Cell Strainer, BD Falcon™), and washed with RPMI 1640 medium (Biochrom). The percentage of viable cells was determined in a Neubauer-hemocytometer using trypan blue exclusion. Aliquots of the cells were frozen down and stored in a liquid nitrogen vapor phase. On each day of an experiment, a frozen aliquot of tumor cells was thawed and used for the preparation of assay plates.
(§9) The clonogenic assay was carried out in a 96 well plate format using ultra low attachment plates. For each test, cells were prepared as described above (Section 6.6) and assay plates were prepared as follows: each test well contained a layer of semi-solid medium with tumor cells (50 μl), and a second layer of medium supernatant with or without test compound (100 μl). The cell layer consisted of 2.5-12.5·10^3 tumor cells per well, which were seeded on day 0 (d0) in 50 μl/well cell culture medium (IMDM, supplemented with 20% (v/v) fetal calf serum, 50 μg/ml gentamicin, and 0.4% (w/v) agar). After 24 h, the soft-agar layer was covered with 90 μl of the same culture medium without agar. Seven days after seeding 10 μl of test compound or control medium was added, and left on the cells for 24 h. Every 96 well plate included six DMSO-treated control wells and drug-treated wells in duplicate at 9 concentrations. After the incubation time of 24 h the supernatant (90 μl medium without agar +10 μl compound/control) was changed against drug free medium and incubated until the end of the study. Cultures were incubated at 37° C. and 7.5% CO2 in a humidified atmosphere 13 days in total and monitored closely for colony growth using an inverted microscope. […]

[9] = tested on: (Asian) gastric cancer model GXA 3067; assay: 3D clonogenic assay, Example 2, GXA 3067; conditions: read-out: abs. IC50
Procedure: as §5, §2, §6, §4

small cell lung cancer [10] = assay: 3D clonogenic assay, Example 1, small cell lung cancer; conditions: n=7 models
Procedure: as §1, §2, §3, §4

soft tissue sarcoma = assay: 3D clonogenic assay, Example 1, soft tissue sarcoma; conditions: n=10 models
Procedure: as §1, §2, §3, §4

[11] = tested on: soft tissue sarcoma models; assay: 3D clonogenic assay, Example 2, soft tissue sarcoma models; conditions: n=8 models
Procedure: as §5, §2, §6, §4

[12] = tested on: small cell lung cancer model LXFS 2156; assay: 3D clonogenic assay, Example 2, LXFS 2156
Procedure: as §5, §2, §6, §4

gastric cancer (Asian) = assay: 3D clonogenic assay, Example 2, gastric cancer (Asian); conditions: n=3 models
Procedure: as §5, §2, §6, §4

bladder cancer = assay: 3D clonogenic assay, Example 1, bladder cancer; conditions: n=9 models
Procedure: as §1, §2, §3, §4

SXFS 627 = assay: 3D clonogenic assay, Example 1, SXFS 627; conditions: model SXFS 627
Procedure: as §1, §2, §3, §4

[13] = tested on: Triple negative breast cancer (MAXFTN); assay: 3D clonogenic assay, Example 2, triple negative breast cancer; conditions: based on IC70, FIG. 7
Procedure: as §5, §2, §6, §4

BXF 2775 = assay: 3D clonogenic assay, Example 1, BXF 2775; conditions: model BXF 2775
Procedure: as §1, §2, §3, §4

BXF 2211 = assay: 3D clonogenic assay, Example 1, BXF 2211; conditions: model BXF 2211
Procedure: as §1, §2, §3, §4

[14] = tested on: 87 PDX models of various histotypes; assay: 3D clonogenic assay, Example 1, all PDX models
Procedure: as §1
as §7, with “into” for “into the”, “diluted” for “diluted at”
as §8, with “87” for “68”
as §9, with “above” for “above (Section 6.6)”, “2.5-12.5×10^3” for “2.5-12.5·10^3”

[15] = tested on: central nervous system cancer; assay: 3D clonogenic assay, Example 2, central nervous system cancer; conditions: n=6 models
Procedure: as §5, §2, §6, §4

[16] = tested on: Her2-enriched breast cancer models; assay: 3D clonogenic assay, Example 2, Her2-enriched breast cancer models; conditions: n=6 models
Procedure: as §5, §2, §6, §4

[17] = sigmoidal concentration-effect curves

SMILES: CC(C)(C)c1[nH]cnc1/C=c1\[nH]c(=O)/c(=C/c2ccccc2)[nH]c1=O [plinabulin, (3Z,6Z)-3-Benzylidene-6-{[5-(2-methyl-2-propanyl)-1H-imidazol-4-yl]methylene}-2,5-piperazinedione]
- absolute IC70 (BXF 1258): 3 nM
- geometric mean absolute IC70 (bladder cancer models): > 3000 nM
- abs. IC70 [1]: 32 nM
- geometric mean absolute IC70 [2]: > 3000 nM
- abs. IC70 [3]: 32 nM
- IC50 ([3]; read-out: abs. IC50): 22 nM
- geom. mean abs. IC70 (osteosarcoma): 624 nM
- IC50 (osteosarcoma; read-out: geom. mean abs. IC50): 117 nM
- abs. IC70 [4]: 27 nM
- IC50 ([4]; read-out: abs. IC50): 19 nM
- geom. mean abs. IC70 (small cell lung cancer [5]): 385 nM
- IC50 (small cell lung cancer [5]; read-out: geom. mean abs. IC50): 74 nM
- geometric mean absolute IC70 (melanoma models [6]): > 3000 nM
- IC50 (melanoma models [6]; read-out: geom. mean abs. IC50): 1370 nM
- geometric mean absolute IC70 (melanoma models [7]): 1105 nM
- Sensitive Tumors, Number, Based on Abs. IC70 ([8]; 68 PDX models): 9 out of 68 and 9/68
- Sensitive Tumors, Number, Based on Rel. IC70 ([8]; 68 PDX models): 27/68
- Sensitive Tumors, Percentage, Based on Abs. IC50 ([8]; 68 PDX models): 35%
- Sensitive Tumors, Percentage, Based on Abs. IC70 ([8]; 68 PDX models): 13%
- Sensitive Tumors, Percentage, Based on Rel. IC50 ([8]; 68 PDX models): 50%
- Sensitive Tumors, Percentage, Based on Rel. IC70 ([8]; 68 PDX models): 40%
- geometric mean absolute IC70, tumor colony formation ([8]; all 68 PDX models, treatment from day 7 to day 8): 1780 nM
- IC50 ([8]; all 68 PDX models, treatment from day 7 to day 8, read-out: geometric mean absolute IC50, tumor colony formation): 600 nM
- Fold difference of IC50 of sensitive tumors vs. all tumors, Based on Abs. IC50 ([8]; geometric means): 10.7 fold
- Fold difference of IC50 of sensitive tumors vs. all tumors, Based on Rel. IC50 ([8]; geometric means): 3.4 fold
- Fold difference of IC70 of sensitive tumors vs. all tumors, Based on Abs. IC70 ([8]; geometric means): 27.1 fold
- Fold difference of IC70 of sensitive tumors vs. all tumors, Based on Rel. IC70 ([8]; geometric means): 4.6 fold
- inhibition of tumor colony formation (in words) [8, 17]: inhibited tumor colony formation in a concentration-dependent manner in almost all cell lines
- IC50 [9]: 26 nM
- geom. mean absolute IC70 (small cell lung cancer [10]): 35 nM
- geom. mean absolute IC70 (soft tissue sarcoma): 57 nM
- geometric mean absolute IC70 [11]: > 3000 nM
- IC50 ([11]; read-out: geom. mean abs. IC50): 2580 nM
- abs. IC70 [12]: 15 nM
- IC50 ([12]; read-out: abs. IC50): 7 nM
- geom. mean abs. IC70 (gastric cancer (Asian)): 319 nM
- IC50 (gastric cancer (Asian); read-out: geom. mean abs. IC50): 166 nM
- geom. mean absolute IC70 (bladder cancer): 38 nM
- absolute IC70 (SXFS 627): 3 nM
- sensitivity to plinabulin (in words) [13]: sensitive
- absolute IC70 (BXF 2775): 3 nM
- absolute IC70 (BXF 2211): 3 nM
- Sensitive Tumors, Number, Based on Abs. IC70 ([14]; 87 PDX models): 40 out of 87 and 40/87
- Sensitive Tumors, Number, Based on Rel. IC70 ([14]; 87 PDX models): 23/87
- Sensitive Tumors, Percentage, Based on Abs. IC70 ([14]; 87 PDX models): 46%
- Sensitive Tumors, Percentage, Based on Rel. IC70 ([14]; 87 PDX models): 26%
- geometric mean absolute IC70, tumor colony formation ([14]; all 87 PDX models, 24 h treatment, 13 days culture): 166 nM
- Fold difference of IC70 of sensitive tumors vs. all tumors, Based on Abs. IC70 ([14]; geometric means): 6.8 fold
- Fold difference of IC70 of sensitive tumors vs. all tumors, Based on Rel. IC70 ([14]; geometric means): 4.6 fold
- inhibition of tumor colony formation (in words) [14, 17]: inhibited tumor colony formation in a concentration-dependent manner in almost all cell lines
- geom. mean abs. IC70 [15]: 1521 nM
- IC50 ([15]; read-out: geom. mean abs. IC50): 426 nM
- geometric mean absolute IC70 [16]: > 3000 nM
- IC50 ([16]; read-out: geom. mean abs. IC50): 2250 nM
